Source: article PMC12751012, “Nanoscale Direct-to-Biology Optimization and Structural Insights into Selective S. aureus TrmD Inhibitors” (Journal of Medicinal Chemistry, 2025)
Like-named read-outs stand apart in the source and are kept apart here.

How the values were obtained:
H. influenzae TrmD = molecular target: T1, H. influenzae TrmD (Haemophilus influenzae, UniProt P43912); assay: Fluorescence polarization (FP) assay, tracer 3 (Cy5TPD), H. influenzae TrmD; format: binding
T1 construct: host or cells: E. coli BL21
Protocol: Fluorescence polarization (FP) assays were performed as follows. The assays for H. influenzae TrmD have been described previously. All assays were conducted in technical triplicate using black 96-well half area plates. For the FP assays, a tracer (20 nM Cy5TPD for E. coli and H. influenzae TrmD, 10 nM tracer 4 for S. aureus TrmD) was mixed with the respective enzyme (2 μM E. coli TrmD, 2 μM H. influenzae TrmD, 500 nM S. aureus TrmD) in buffer (E. coli and H. influenzae TrmD: 50 mM HEPES, 500 mM NaCl, 5% Glycerol, pH 7.5, S. aureus TrmD: 40 mM Tris HCl, 100 mM NaCl, 10 mM MgCl2, 5% Glycerol, pH 7.5). The compounds were added in varying concentrations for K D-value determination. […] The Z-factor for tracer 4 was determined by measuring 48 replicates of the free tracer (positive controls, PC) and 48 replicates of a mixture of enzyme and tracer (negative controls, NC). The Z-factor is defined in terms of the means (μ) and standard deviations (σ) of the positive and negative controls and calculated as Z = 1–(3*(σnc + σpc)/(μnc–μpc)). […] Polarization values (mP) were determined from polarization-specific parallel and orthogonal fluorescence intensities. K D-values were calculated in GraphPad Prism 8.0.1 using the four-parameter Hill equation: y(% tracer bound) = bottom + ([ligand]-slope) × (top–bottom)/([ligand]-slope + K Dslope).

S. aureus TrmD = molecular target: T2, S. aureus TrmD (Staphylococcus aureus, UniProt Q2FZ43); assay: nanoSAR direct-to-biology FP displacement screening of crude triazoles; format: binding; settings: read-out: % displaced tracer
T2 construct: made in house; host or cells: E. coli BL21
T2 sequence (Q2FZ43 1-245): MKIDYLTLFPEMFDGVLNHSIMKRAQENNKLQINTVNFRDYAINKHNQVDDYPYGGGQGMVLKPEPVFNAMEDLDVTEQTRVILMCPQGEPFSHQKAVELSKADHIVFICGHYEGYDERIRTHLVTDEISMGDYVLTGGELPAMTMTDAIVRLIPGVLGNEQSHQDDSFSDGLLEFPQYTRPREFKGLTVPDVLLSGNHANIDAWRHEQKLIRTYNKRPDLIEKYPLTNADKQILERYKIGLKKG
Procedure, shortened: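 Crude CuAAC triazoles from alkyne 7 and 320 diverse azides were screened by FP displacement of 10 nM tracer 4 from 500 nM S. aureus TrmD. Buffer was 40 mM Tris HCl, 100 mM NaCl, 10 mM MgCl2, 5% glycerol, pH 7.5.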

S. aureus RN4220 = assay: Minimal bactericidal concentration (MBC) determination, CFU/mL; format: cell-based, Staphylococcus aureus; settings: 24 h static incubation
Protocol: To determine the minimal bactericidal concentration of the substances, bacterial cultures were prepared as in the bacterial growth inhibition assay but incubated statically at 37 °C. A serial dilution of the initial culture was made and plated on a TSB agar plate to determine the CFU/mL of the original culture. After 24 h, the cultures were diluted again and plated. Bacterial colonies were counted, and the CFU/mL was calculated. The experiment was performed in n = 3 biological replicates. Data evaluation was done using GraphPad Prism. One-way ANOVA with Dunnett’s multiple comparisons test was used for statistical analysis, and all samples were compared to the starting CFU/mL.

[1] = read-out: KD H. influenzae TrmD (FP)
[2] = crude triazole at 1 μM, assuming full conversion, 500 nM TrmD, 10 nM tracer 4

T1 sequence (P43912 whole entry): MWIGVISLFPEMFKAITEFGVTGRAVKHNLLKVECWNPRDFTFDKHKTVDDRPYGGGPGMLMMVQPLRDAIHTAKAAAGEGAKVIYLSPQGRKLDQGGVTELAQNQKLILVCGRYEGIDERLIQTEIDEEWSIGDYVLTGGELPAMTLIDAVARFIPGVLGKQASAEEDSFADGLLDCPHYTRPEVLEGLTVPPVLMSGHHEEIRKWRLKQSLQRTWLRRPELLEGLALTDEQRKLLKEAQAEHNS

## N#Cc1cccc(Cn2cc(-c3c[nH]c4nc[nH]c(=O)c34)nn2)c1 [Compound 8b, 3-((4-(4-Oxo-4,7-dihydro-3H-pyrrolo[2,3-d]pyrimidin-5-yl)-1H-1,2,3-triazol-1-yl)methyl)benzonitrile]
H. influenzae TrmD; [1]
  Kd: > 30 µM
S. aureus TrmD; [2]
  inhibition at 1 µM: 100%

## O=c1[nH]cnc2[nH]cc(-c3cn(CC4CCC5C(CC4)C5(F)F)nn3)c12 (stereo not shown) [Compound 8c, 5-(1-((8,8-Difluorobicyclo[5.1.0]octan-4-yl)methyl)-1H-1,2,3-triazol-4-yl)-3,7-dihydro-4H-pyrrolo[2,3-d]pyrimidin-4-one]
H. influenzae TrmD; [1]
  Kd: > 30 µM
S. aureus TrmD; [2]
  inhibition at 1 µM: 98%

## O=c1[nH]cnc2[nH]cc(-c3cn(Cc4ccc5ncccc5c4)nn3)c12 [Compound 8d, 5-(1-(Quinolin-6-ylmethyl)-1H-1,2,3-triazol-4-yl)-3,7-dihydro-4H-pyrrolo[2,3-d]pyrimidin-4-one]
H. influenzae TrmD; [1]
  Kd: > 30 µM
S. aureus TrmD; [2]
  inhibition at 1 µM: 98%

## N[C@@H]1CCC[C@@H]1Cn1cc(-c2c[nH]c3nc[nH]c(=O)c23)nn1 [Compound 8e, 5-(1-(((1R,2R)-2-Aminocyclopentyl)methyl)-1H-1,2,3-triazol-4-yl)-3,7-dihydro-4H-pyrrolo[2,3-d]pyrimidin-4-one]
H. influenzae TrmD; [1]
  Kd: > 30 µM
S. aureus TrmD; [2]
  inhibition at 1 µM: 93%

## O=C(/N=C(\NCCn1cc(-c2c[nH]c3nc[nH]c(=O)c23)nn1)NC(=O)OCc1ccccc1)OCc1ccccc1 [Compound 8f]
S. aureus RN4220
  concentration from which growth (CFU/mL) is affected: 12.5 µM
  effect on CFU/mL after 24 h (MBC determination): bacteria were not killed completely

## CC(C)(C)OC(=O)/N=C(\NCCn1cc(-c2c[nH]c3nc[nH]c(=O)c23)nn1)NC(=O)OC(C)(C)C [Compound 8g]
S. aureus RN4220
  effect on CFU/mL after 24 h (MBC determination): cell growth is not negatively affected

## NC(N)=NCCn1cc(-c2c[nH]c3nc[nH]c(=O)c23)nn1 [Compound 8h]
H. influenzae TrmD; KD H. influenzae TrmD (FP)
  Kd: > 30 µM
S. aureus TrmD
  inhibition at 1 µM: 97%
